Laboratory results reported in patent US12565489B2, “Heterocyclyl pyrimidines and triazines as novel fungicides” (Bayer Aktiengesellschaft, priority 2020, dated 2026).

How the values were obtained:
Septoria tritici = Septoria tritici in vitro cell test; type: cell-based; conditions: Zymoseptoria tritici, 168 h; 20 ppm of active ingredient; 7 days incubation; liquid culture, spectrometric measurement of mycelium growth; read-out: efficacy (inhibition of fungal growth)
Procedure: • Solvent: DMSO • Culture medium: 1 g KH2PO4 (VWR), 1 g K2HPO4 (VWR), 0.5 g Urea (VWR), 3 g KNO3 (Prolabo), 10 g saccharose (VWR), 0.5 g MgSO4, 7H2O (Sigma), 0.07 g CaCl2, 2H2O (Prolabo), 0.2 mg MnSO4, H2O (Sigma), 0.6 mg CuSO4, 5H2O (Sigma), 7.9 mg ZnSO4, 7H2O (Sigma), 0.1 mg H3BO3 (Merck), 0.14 mg NaMoO4, 2H2O (Sigma), 2 mg thiamine (Sigma), 0.1 mg biotine (VWR), 4 mg FeSO4, 7H2O (Sigma), QSP 1 liter • Inoculum: spore suspension Fungicides were solubilized in DMSO and the solution used to prepare the required range of concentrations. […] A spore suspension of S. tritici was prepared and diluted to the desired spore density. Fungicides were evaluated for their ability to inhibit spore germination and mycelium growth in liquid culture assay. The compounds were added in the desired concentration to the culture medium with spores. […] Inhibition of fungal growth was determined by comparing the absorbance values in wells containing the fungicides with the absorbance in control wells without fungicides.

Botrytis cinerea = Botrytis cinerea in vitro cell test; type: cell-based; conditions: 144 h, 20 ppm of active ingredient, 6 days incubation, liquid culture, spectrometric measurement of mycelium growth, read-out: efficacy (inhibition of fungal growth)
Procedure: • Solvent: DMSO • Culture medium: 1 g KH2PO4 (VWR), 1 g K2HPO4 (VWR), 0.5 g Urea (VWR), 3 g KNO3 (Prolabo), 10 g saccharose (VWR), 0.5 g MgSO4, 7H2O (Sigma), 0.07 g CaCl2, 2H2O (Prolabo), 0.2 mg MnSO4, H2O (Sigma), 0.6 mg CuSO4, 5H2O (Sigma), 7.9 mg ZnSO4, 7H2O (Sigma), 0.1 mg H3BO3 (Merck), 0.14 mg NaMoO4, 2H2O (Sigma), 2 mg thiamine (Sigma), 0.1 mg biotine (VWR), 4 mg FeSO4, 7H2O (Sigma), QSP 1 liter • Inoculum: spore suspension Fungicides were solubilized in DMSO and the solution used to prepare the required range of concentrations. […] A spore suspension of B. cinerea was prepared and diluted to the desired spore density. Fungicides were evaluated for their ability to inhibit spore germination and mycelium growth in liquid culture assay. The compounds were added in the desired concentration to the culture medium with spores. After 6 days incubation, fungi-toxicity of compounds was determined by spectrometric measurement of mycelium growth. Inhibition of fungal growth was determined by comparing the absorbance values in wells containing the fungicides with the absorbance in control wells without fungicides.

[1] = Measurement of Log P values by HPLC on reversed phase columns (EEC directive 79/831 Annex V.A8); type: physicochemical; conditions: LogP
Procedure, shortened: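 Calibration used straight-chain alkan-2-ones (3 to 16 carbons) of known Log P, interpolating linearly between retention times. Values come from reversed-phase LC-UV (EEC 79/831 Annex V.A8), 10% to 95% acetonitrile gradient against 0.1% formic acid, 0.001 molar ammonium acetate, or 0.1% phosphoric acid.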

Alternaria brassicae = assay: In vivo preventive test on Alternaria brassicae (leaf spot on radish or cabbage); conditions: 144 h, 500 ppm of active ingredient, preventive spray on young radish or cabbage plants, evaluated 6 days after inoculation, read-out: efficacy
Procedure: The active ingredients were made soluble and homogenized in a mixture of Dimethyl sulfoxide/Acetone//Tween®80 and then diluted in water to the desired concentration. The young plants of radish or cabbage were treated by spraying the active ingredient prepared as described above. Control plants were treated only with an aqueous solution of Acetone/Dimethyl sulfoxide/Tween® 80. After 24 hours, the plants were contaminated by spraying the leaves with an aqueous suspension of Alternaria brassicae spores.

Alternaria alternata = Alternaria alternata in vitro cell test; type: cell-based; conditions: 120 h, 20 ppm of active ingredient, 5 days incubation, liquid culture, spectrometric measurement of mycelium growth, read-out: efficacy (inhibition of fungal growth)
Procedure: (§1) • Solvent: DMSO • Culture medium: 14.6 g anhydrous D-glucose (VWR), 7.1 g Mycological Peptone (Oxoid), 1.4 g granulated Yeast Extract (Merck), QSP 1 liter • Inoculum: spore suspension Fungicides were solubilized in DMSO and the solution used to prepare the required range of concentrations. […] A spore suspension of A. alternata was prepared and diluted to the desired spore density. Fungicides were evaluated for their ability to inhibit spore germination and mycelium growth in liquid culture assay. The compounds were added in the desired concentration to the culture medium with spores. After 5 days incubation, fungi-toxicity of compounds was determined by spectrometric measurement of mycelium growth. Inhibition of fungal growth was determined by comparing the absorbance values in wells containing the fungicides with the absorbance in control wells without fungicides.

Pyricularia oryzae = assay: microbe, parasite or virus in culture; type: cell-based; conditions: 120 h, read-out: efficacy (inhibition of fungal growth)
[2] = system: Colletotrichum lindemuthianum; assay: Colletotrichum lindemuthianum in vitro cell test; type: cell-based; conditions: 144 h, 20 ppm of active ingredient, 6 days incubation, liquid culture, spectrometric measurement of mycelium growth, read-out: efficacy (inhibition of fungal growth)
Procedure: as §1, with “of C. lindemuthianum” for “of A. alternata”, “inhibit spores” for “inhibit spore”, “After 6” for “After 5”

SMILES | inhibition at 20 ppm (Septoria tritici) [%] | inhibition at 20 ppm (Botrytis cinerea) [%] | chromatographic logP [1] | pest or weed control at 500 ppm (Alternaria brassicae) [%] | inhibition at 20 ppm (Alternaria alternata) [%] | inhibition at 20 ppm (Pyricularia oryzae) [%] | inhibition at 20 ppm [2] [%]
Cc1ncc(Oc2cccc(C(F)(F)F)c2)c(C2=NOC[C@@H](Cc3ccc(C(F)F)cc3Cl)N2)n1 (racemic) [Compound I-033] | 90 to 100 | 90 to 100 | 4.02 | 90 to 100 | 90 to 100 | 70 to 79 | 90 to 100
Cc1ccc(C[C@@H]2CON=C(c3nc(C)ncc3Oc3cccc(C4CC4)c3F)N2)c(Cl)c1 (racemic) [Compound I-008] | 90 to 100 | 90 to 100 | 4.49 | 90 to 100 | 90 to 100 | 90 to 100 | 90 to 100
C=Cc1cccc(Oc2cnc(C)nc2C2=NOC[C@@H](Cc3ccc(C)cc3C)N2)c1 (racemic) [Compound I-019] | 90 to 100 | 90 to 100 | 4.09 | 90 to 100 | 90 to 100 | 90 to 100 | 90 to 100
Cc1ccc(C[C@@H]2CON=C(c3nc(C)ncc3Oc3cccc(C4CC4)c3)N2)c(C)c1 (racemic) [Compound I-024] | 90 to 100 | 90 to 100 | 4.55 | 90 to 100 | 90 to 100 | 90 to 100 | 90 to 100
C=Cc1ccc(C[C@@H]2CON=C(c3nc(C)ncc3Oc3cccc(C(F)(F)F)c3)N2)c(C)c1 (racemic) [Compound I-006] | 90 to 100 | 90 to 100 | 4.44 | 90 to 100 | 90 to 100 | 70 to 79 | 90 to 100
C#Cc1ccc(CC2CON=C(c3nc(C)ncc3Oc3cccc(C(F)(F)F)c3)N2)c(C)c1 (racemic) [Compound I-026, (5RS)-5-[(4-ethynyl-2-methyl-phenyl)methyl]-3-[2-methyl-5-[3-(trifluoromethyl)phenoxy]pyrimidin-4-yl]-5,6-dihydro-4H-1,2,4-oxadiazine] | 90 to 100 | 90 to 100 | 3.99 | 90 to 100 | 90 to 100 | 90 to 100 | 90 to 100
Cc1ccc(CC2CON=C(c3nc(C4CC4)ncc3Oc3cccc(C(F)(F)F)c3)N2)c(C)c1 (racemic) [Compound I-001, (5RS)-3-{2-cyclopropyl-5-[3-(trifluoro-methyl)phenoxy]pyrimidin-4-yl}-5-(2,4-dimethylbenzyl)-5,6-dihydro-4H-1,2,4-oxadiazine] | 90 to 100 | 90 to 100 | 5.16 | 90 to 100 | 90 to 100 | 80 to 89 | 90 to 100
CSc1ncc(Oc2cccc(C(F)(F)F)c2)c(C2=NOC[C@@H](Cc3ccc(C)cc3C)N2)n1 (racemic) [Compound I-017] | 70 to 79 | 90 to 100 | 5.09 | 90 to 100 | 70 to 79 | – | 90 to 100
Cc1ncc(Oc2cccc(C(F)(F)F)c2)c(C2=NOC[C@@H](Cc3ccc(SC(F)(F)F)cc3)N2)n1 (racemic) [Compound I-030] | 70 to 79 | 90 to 100 | 4.62 | 80 to 89 | 80 to 89 | – | 90 to 100
Cc1ccc(C[C@@H]2CON=C(c3nc(C)ncc3Oc3cccc(C(F)(F)F)c3)N2)c(Cl)c1 (racemic) [Compound I-013] | 90 to 100 | 90 to 100 | 4.47 | 90 to 100 | 90 to 100 | – | 90 to 100
